Source: patent publication US12421191B2, “3-hydroxyoxindole derivatives as CRHR2 antagonist” (RaQualia Pharma Inc., priority 2020, dated 2025)

These compounds were tested against T1, human CRHR2-alpha (Homo sapiens, UniProt Q13324) (assay: cAMP functional assay for human CRHR2 (LANCE Ultra TR-FRET)). Details: inhibition of cAMP production in CHO-K1 cells stably expressing human CRHR2-alpha, EC90 of human urocortin2 as agonist; read-out: IC50 against CRHR2.
T1 construct: host or cells: CHO-K1
T1 sequence (Q13324 1-411): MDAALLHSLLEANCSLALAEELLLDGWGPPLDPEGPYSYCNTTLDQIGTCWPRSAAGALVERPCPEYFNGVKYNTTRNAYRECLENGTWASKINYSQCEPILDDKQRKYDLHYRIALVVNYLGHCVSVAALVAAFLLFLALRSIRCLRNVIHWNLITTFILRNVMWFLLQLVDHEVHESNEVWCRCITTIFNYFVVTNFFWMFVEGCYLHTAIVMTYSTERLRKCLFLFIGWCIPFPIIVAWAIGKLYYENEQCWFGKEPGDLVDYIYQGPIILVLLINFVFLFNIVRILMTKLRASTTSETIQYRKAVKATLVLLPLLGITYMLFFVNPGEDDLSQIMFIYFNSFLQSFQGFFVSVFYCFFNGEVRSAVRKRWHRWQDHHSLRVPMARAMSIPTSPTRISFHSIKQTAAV
Format: cell-based
Protocol: cAMP functional assay for human CRHR2 The ability of the compounds of this invention to inhibit either CRHR2 is assessed by 3′,5′-cyclic adenosine monophosphate (cAMP) production in cells using the LANCE Ultra cAMP assay kit (ParkinElmer), which are designed based on the homogeneous time-resolved fluorescence resonance energy transfer (TR-FRET) immunoassay.
CHO-K1 (Chinese hamster ovary) cells stably expressing human CRHR2-alpha (DiscoveRX, Cat. 95-0048C2) are grown in HAM's F12 media supplemented with 10% fetal bovine serum (FBS), 100 units/mL penicillin G, 100 microg/mL hygromycin and 0.5 microg/mL geneticin at 37° C. in 5% CO2 humidified incubator to 80% confluence. After 7 hours starvation treatment in culture media containing 0.1% FBS, the cells are washed with Hanks balanced salt solution (HBSS) and cryopreserved.
For cAMP assay, frozen cells are thawed and washed with HBSS, followed by resuspending cells in assay buffer (HBSS containing 0.1% bovine serum albumin, 0.5 mM isobutylmethylxanthine and 5 mM Hepes, pH 7.4) at the appropriate concentration for the assay. The cell suspensions are plated on 384-well microplates (Greiner Bio-One) at a density of 4,000 cells per well. After preincubating the cells with various concentrations of the compounds for 30 min at 25° C., an assay buffer containing EC90 concentration of agonist is added and the cells are incubated for 30 min at 25° C. Human urocortin2 (Peptide Institute) is used as agonists for CRHR2. For the termination of assay, europium-labeled cAMP tracer and ULight (registered trademark) dye labeled cAMP antibodies, both prepared with Lance-Ultra cAMP detection reagent (PerkinElmer) are added in the plate and incubate for 60 min at 25° C. After incubation, TR-FRET signal is detected by EnVision plate reader (PerkinElmer). The IC50 values for compounds are calculated from dose-response curves by fitting the percent inhibition using XLfit (ID Business Solutions).

SMILES | IC50 [µM]
Cc1ncc(Cl)cc1C(=O)N[C@H]1CC[C@H](CN2C(=O)C(O)(c3cc(F)cc(F)c3F)c3ccccc32)CC1 (some centres unmarked) [Example 132, 5-chloro-N-((1r,4r)-4-((3-hydroxy-2-oxo-3-(2,3,5-trifluorophenyl)indolin-1-yl)methyl)cyclohexyl)-2-methylnicotinamide] | < 0.2
O=C(N[C@H]1CC[C@H](CN2C(=O)C(O)(c3ccsc3)c3ccccc32)CC1)c1cc(Cl)cnc1C(F)F (some centres unmarked) [Example 92, 5-chloro-2-(difluoromethyl)-N-((1r,4r)-4-((3-hydroxy-2-oxo-3-(thiophen-3-yl)indolin-1-yl)methyl)cyclohexyl) nicotinamide] | < 0.2
COc1ccc(C2(O)C(=O)N(C[C@H]3CC[C@H](NC(=O)c4cc(Cl)cnc4C(F)F)CC3)c3ccccc32)c(F)c1 (some centres unmarked) [Example 54, 5-chloro-2-(difluoromethyl)-N-((1r,4r)-4-((3-(2-fluoro-4-methoxyphenyl)-3-hydroxy-2-oxoindolin-1-yl)methyl)cyclohexyl) nicotinamide] | < 0.2
COc1ccc(F)c(C2(O)C(=O)N(C[C@H]3CC[C@H](NC(=O)c4cc(Cl)cnc4C(F)F)CC3)c3cc(F)ccc32)c1 (some centres unmarked) [Example 156, 5-chloro-2-(difluoromethyl)-N-((1r,4r)-4-((6-fluoro-3-(2-fluoro-5-methoxyphenyl)-3-hydroxy-2-oxoindolin-1-yl)methyl)cyclohexyl) nicotinamide] | < 0.2
Cc1ccc2c(c1)N(C[C@H]1CC[C@H](NC(=O)c3cc(Cl)cnc3C(F)F)CC1)C(=O)C2(O)c1ccccc1F (some centres unmarked) [Example 148, 5-chloro-2-(difluoromethyl)-N-((1r,4r)-4-((3-(2-fluorophenyl)-3-hydroxy-6-methyl-2-oxoindolin-1-yl)methyl)cyclohexyl) nicotinamide] | < 0.2
Cc1ncc(Cl)cc1C(=O)N[C@H]1CC[C@H](CN2C(=O)C(O)(c3cccc(F)c3F)c3cc(F)ccc32)CC1 (some centres unmarked) [Example 162, 5-chloro-N-((1r,4r)-4-((3-(2,3-difluorophenyl)-5-fluoro-3-hydroxy-2-oxoindolin-1-yl)methyl)cyclohexyl)-2-methylnicotinamide] | < 0.2
O=C(N[C@H]1CC[C@H](CN2C(=O)C(O)(c3ccc(F)c(F)c3F)c3ccccc32)CC1)c1cc(Cl)cnc1C(F)F (some centres unmarked) [Example 135, 5-chloro-2-(difluoromethyl)-N-((1r,4r)-4-((3-hydroxy-2-oxo-3-(2,3,4-trifluorophenyl)indolin-1-yl)methyl)cyclohexyl) nicotinamide] | < 0.2
O=C(N[C@H]1CC[C@H](CN2C(=O)C(O)(c3cc(F)ccc3F)c3ccc(F)cc32)CC1)c1cc(Cl)cnc1C(F)F (some centres unmarked) [Example 118, 5-chloro-2-(difluoromethyl)-N-((1r,4r)-4-((3-(2,5-difluorophenyl)-6-fluoro-3-hydroxy-2-oxoindolin-1-yl)methyl)cyclohexyl)nicotinamide] | < 0.2
O=C(N[C@H]1CC[C@H](CN2C(=O)C(O)(c3ccccc3F)c3c(F)cccc32)CC1)c1cc(Cl)cnc1C(F)F (some centres unmarked) [Example 191, 5-chloro-2-(difluoromethyl)-N-((1r,4r)-4-((4-fluoro-3-(2-fluorophenyl)-3-hydroxy-2-oxoindolin-1-yl)methyl)cyclohexyl) nicotinamide] | < 0.2
O=C(N[C@H]1CC[C@H](CN2C(=O)C(O)(c3ccccc3F)c3cccnc32)CC1)c1cc(Cl)cnc1C(F)F (some centres unmarked) [Example 94, 5-chloro-2-(difluoromethyl)-N-((1r,4r)-4-((3-(2-fluorophenyl)-3-hydroxy-2-oxo-2,3-dihydro-1H-pyrrolo[2,3-b]pyridin-1-yl)methyl)cyclohexyl) nicotinamide] | < 0.2
O=C(N[C@H]1CC[C@H](CN2C(=O)C(O)(c3cccc(Cl)c3F)c3ccccc32)CC1)c1cc(Cl)cnc1C(F)F (some centres unmarked) [Example 67, 5-chloro-N-((1r,4r)-4-((3-(3-chloro-2-fluorophenyl)-3-hydroxy-2-oxoindolin-1-yl)methyl)cyclohexyl)-2-(difluoromethyl)nicotinamide] | < 0.2
COc1cc(C2(O)C(=O)N(C[C@H]3CC[C@H](NC(=O)c4cc(Cl)cnc4C(F)F)CC3)c3cc(F)ccc32)c(F)cn1 (some centres unmarked) [Example 115, 5-chloro-2-(difluoromethyl)-N-((1r,4r)-4-((6-fluoro-3-(5-fluoro-2-methoxypyridin-4-yl)-3-hydroxy-2-oxoindolin-1-yl)methyl)cyclohexyl) nicotinamide] | < 0.2
Cc1ccc(C2(O)C(=O)N(C[C@H]3CC[C@H](NC(=O)c4cc(Cl)cnc4C(F)F)CC3)c3ccccc32)cc1 (some centres unmarked) [Example 56, 5-chloro-2-(difluoromethyl)-N-((1r,4r)-4-((3-hydroxy-2-oxo-3-(p-tolyl)indolin-1-yl)methyl)cyclohexyl) nicotinamide] | < 0.2
Cc1cccc(C2(O)C(=O)N(C[C@H]3CC[C@H](NC(=O)c4cc(Cl)cnc4C(F)F)CC3)c3ccccc32)c1F (some centres unmarked) [Example 63, 5-chloro-2-(difluoromethyl)-N-((1r,4r)-4-((3-(2-fluoro-3-methylphenyl)-3-hydroxy-2-oxoindolin-1-yl)methyl)cyclohexyl) nicotinamide] | < 0.2
O=C(N[C@H]1CC[C@H](CN2C(=O)C(O)(c3cccc(F)c3F)c3cc(F)ccc32)CC1)c1cc(Cl)cnc1C(F)F (some centres unmarked) [Example 123, 5-chloro-2-(difluoromethyl)-N-((1r,4r)-4-((3-(2,3-difluorophenyl)-5-fluoro-3-hydroxy-2-oxoindolin-1-yl)methyl)cyclohexyl) nicotinamide] | < 0.2
O=C(N[C@H]1CC[C@H](CN2C(=O)C(O)(c3ccccc3)c3ccccc32)CC1)c1cc(Cl)cnc1C(F)F (some centres unmarked) [Example 3, 5-chloro-2-(difluoromethyl)-N-((1r,4r)-4-((3-hydroxy-2-oxo-3-phenylindolin-1-yl)methyl)cyclohexyl) nicotinamide] | < 0.2
O=C(N[C@H]1CC[C@H](CN2C(=O)C(O)(c3ccccc3F)c3ccc(F)cc32)CC1)c1cc(Cl)cnc1C(F)F (some centres unmarked) [Example 83, 5-chloro-2-(difluoromethyl)-N-((1r,4r)-4-((6-fluoro-3-(2-fluorophenyl)-3-hydroxy-2-oxoindolin-1-yl)methyl)cyclohexyl) nicotinamide] | < 0.2
Cc1ccc2c(c1)N(C[C@H]1CC[C@H](NC(=O)c3cc(Cl)cnc3C(F)F)CC1)C(=O)C2(O)c1ccncc1F (some centres unmarked) [Example 149, 5-chloro-2-(difluoromethyl)-N-((1r,4r)-4-((3-(3-fluoropyridin-4-yl)-3-hydroxy-6-methyl-2-oxoindolin-1-yl)methyl)cyclohexyl) nicotinamide] | < 0.2
Cc1cccc2c1C(O)(c1ccccc1F)C(=O)N2C[C@H]1CC[C@H](NC(=O)c2cc(Cl)cnc2C(F)F)CC1 (some centres unmarked) [Example 179, 5-chloro-2-(difluoromethyl)-N-((1r,4r)-4-((3-(2-fluorophenyl)-3-hydroxy-4-methyl-2-oxoindolin-1-yl)methyl)cyclohexyl) nicotinamide] | < 0.2
O=C(N[C@H]1CC[C@H](CN2C(=O)C(O)(c3cccc(Cl)c3F)c3c(F)cccc32)CC1)c1cc(Cl)cnc1C(F)F (some centres unmarked) [Example 190, 5-chloro-N-((1r,4r)-4-((3-(3-chloro-2-fluorophenyl)-4-fluoro-3-hydroxy-2-oxoindolin-1-yl)methyl)cyclohexyl)-2-(difluoromethyl)nicotinamide] | < 0.2
Cc1cccc2c1C(O)(c1ccc(F)cn1)C(=O)N2C[C@H]1CC[C@H](NC(=O)c2cc(Cl)cnc2C(F)F)CC1 (some centres unmarked) [Example 178] | < 0.2
O=C(N[C@H]1CC[C@H](CN2C(=O)C(O)(c3cc(F)cc(F)c3F)c3ccccc32)CC1)c1cc(Cl)cnc1C(F)F (some centres unmarked) [Example 133, 5-chloro-2-(difluoromethyl)-N-((1r,4r)-4-((3-hydroxy-2-oxo-3-(2,3,5-trifluorophenyl)indolin-1-yl)methyl)cyclohexyl) nicotinamide] | < 0.2
COc1ccc(C2(O)C(=O)N(C[C@H]3CC[C@H](NC(=O)c4cc(Cl)cnc4C)CC3)c3ccccc32)c(F)c1F (some centres unmarked) [Example 139, 5-chloro-N-((1r,4r)-4-((3-(2,3-difluoro-4-methoxyphenyl)-3-hydroxy-2-oxoindolin-1-yl)methyl)cyclohexyl)-2-methylnicotinamide] | < 0.2
